Measured values published in patent US4610977A, “N-alkyl and N-benzyl adriamycin derivatives” (The University of Tennessee Research Corporation, priority 1985, dated 1986).
Where two headings read alike, the source gives them in different places.

Assays:
[1] = In vivo antitumor activity against murine L1210 leukemia in B6D2F1 male mice; settings: mouse, in vivo, ip
Excerpt: (§1) The in vivo evaluations were made by preparing a 0.01 to 0.4% by weight solution of the active agent in an aqueous solution of polyethoxylated castor oil (10% by volume) and ethanol (10% by volume) as a carrier and injecting the dosage intraperitoneally. The evaluations were made of the antitumor activity against the murine P 388 and L1210 leukemias in B6D2F1 male mice essentially according to standard National Cancer Institute protocols as set forth by Geran et al., Cancer Chemotherap. Rep., Part 3, Volume 3, pages 1 et seq.

murine L1210 leukemia = test: as above; settings: L1210, qd 1-4; for % ILS (percent median increase in life span relative to untreated controls): at optimal dose (Examples 1/2/3: 12.5/20.0/25.0, adriamycin 3.0 mg/kg); for % ILS (percent median increase in life span relative to untreated controls) / LTS (tumor free long term survivors): ip; for LTS (tumor free long term survivors): at optimal dose, day of sacrifice: Examples 1-3 42
Excerpt: as §1

malignant tumors = settings: cited from earlier work; for Clinical antitumor effectiveness: certain malignant tumors, e.g. induction of remission in acute leukemia; for Toxicities accompanying chemotherapy: limit effectiveness, particularly long-term use
in vivo = settings: mouse, ip
Excerpt: as §1

CCRF-CEM cell line = test: Growth inhibition of CCRF-CEM cells in culture, 48 hours continuous drug exposure; format: cell-based, child with lymphoblastic leukemia; settings: Homo sapiens
Protocol: The toxicity and therapeutic effectiveness of the new compounds and active agents of the present invention are shown by in vitro assays and by in vivo evaluations in mice. The in vitro assays measure the growth inhibiting activity of the materials against the CCRF-CEM cell line in culture. The cell line was derived from the peripheral blood of a child with lymphoblastic leukemia as described by Foley et al., Cancer, Volume 18, page 522 et seq. (1965), and the assays were carried out by the procedure of Foley and Lazarus, Biochem. Pharmacol., Vol. 16, pages 659 et seq. (1967), the compounds being dissolved in dimethyl sulfoxide and diluted into cell culture media to give a final dimethyl sulfoxide concentration of 1%, the results being reported in terms of the dose in micromoles per liter required to inhibit growth of the cultures by 50% relative to control cultures to which no drug had been added (ID50).
^1 Concentration required to inhibit growth of cultures by 50%
relative to untreated controls; 48 hours continuous drug exposure.

[2] = 48 hours continuous drug exposure, final DMSO 1%, read-out: ID50 (concentration required to inhibit growth of cultures by 50% relative to untreated controls)
[3] = 48 hours continuous drug exposure, read-out: ID50, corresponding compounds having different N-substitution

For `COc1cccc2c1C(=O)c1c(O)c3c(c(O)c1C2=O)C[C@@](O)(C(=O)CO)C[C@@H]3O[C@H]1C[C@H](N)[C@H](O)[C@H](C)O1` [Adriamycin], the MTD [1] was 3 mg/kg, the “All animals dead by day” value (murine L1210 leukemia; adriamycin 3.0 mg/kg, footnote 4) was ≤ 22 days and the “% ILS (percent median increase in life span relative to untreated controls)” value (murine L1210 leukemia) was “+90%”. For the same compound, the “LTS (tumor free long term survivors)” value (murine L1210 leukemia) was 0/7, the Clinical antitumor effectiveness (malignant tumors) was “effective clinically against certain malignant tumors” and the “Clinical efficacy against certain solid tumors” value (malignant tumors; certain solid tumors) was “has shown clinical efficacy against certain solid tumors”. For the same compound, the Toxicities accompanying chemotherapy (malignant tumors) was “a variety of toxicities”.

`CCCCN(CCCC)[C@H]1C[C@H](O[C@H]2C[C@](O)(C(=O)CO)Cc3c(O)c4c(c(O)c32)C(=O)c2c(OC)cccc2C4=O)O[C@@H](C)[C@H]1O` [Di-n-butyl] gave an MTD (in vivo) of 25 mg/kg.

Work on `CCCN(CCC)[C@H]1C[C@H](O[C@H]2C[C@](O)(C(=O)CO)Cc3c(O)c4c(c(O)c32)C(=O)c2c(OC)cccc2C4=O)O[C@@H](C)[C@H]1O` [Di-n-propyl] yielded an MTD (in vivo) of 20 mg/kg.

`CCCCC(=O)OCC(=O)[C@]1(O)Cc2c(O)c3c(c(O)c2[C@@H](O[C@H]2C[C@H](NCc4ccccc4)[C@H](O)[C@H](C)O2)C1)C(=O)c1c(OC)cccc1C3=O` [Example 1, N-Benzyladriamycin-14-valerate] gave an IC50 (CCRF-CEM cell line; [2]) of 1000 nM, an MTD (in vivo) of 10 mg/kg and an MTD [1] of 12.5 mg/kg. The “% ILS (percent median increase in life span relative to untreated controls)” value (murine L1210 leukemia) was “> +350%” and the “LTS (tumor free long term survivors)” value (murine L1210 leukemia) was 5/7.

Compound `CCCCC(=O)OCC(=O)[C@]1(O)Cc2c(O)c3c(c(O)c2[C@@H](O[C@H]2C[C@H](N(CCC)CCC)[C@H](O)[C@H](C)O2)C1)C(=O)c1c(OC)cccc1C3=O` [Example 2, N,N-Di(n-propyl)adriamycin-14-valerate] has an IC50 (CCRF-CEM cell line; [2]) of 1900 nM, an MTD (in vivo) of 20 mg/kg and an MTD [1] of 20 mg/kg. The “% ILS (percent median increase in life span relative to untreated controls)” value (murine L1210 leukemia) was “> +350%” and the “LTS (tumor free long term survivors)” value (murine L1210 leukemia) was 4/7.

In the case of `CCCCC(=O)OCC(=O)[C@]1(O)Cc2c(O)c3c(c(O)c2[C@@H](O[C@H]2C[C@H](N(CCCC)CCCC)[C@H](O)[C@H](C)O2)C1)C(=O)c1c(OC)cccc1C3=O` [Example 3, N,N-Di(n-butyl)adriamycin-14-valerate], the IC50 (CCRF-CEM cell line; [2]) is reported as 2100 nM, the MTD (in vivo) is reported as 30 mg/kg and the MTD [1] is reported as 25 mg/kg. For the same compound, the “% ILS (percent median increase in life span relative to untreated controls)” value (murine L1210 leukemia) was “> +350%” and the “LTS (tumor free long term survivors)” value (murine L1210 leukemia) was 5/7.

For `COc1cccc2c1C(=O)c1c(O)c3c(c(O)c1C2=O)C[C@@](O)(C(=O)CO)C[C@@H]3O[C@H]1C[C@H](NCc2ccccc2)[C@H](O)[C@H](C)O1` [Mono-N--benzyl], the MTD (in vivo) was 5 mg/kg.

For `COc1cccc2c1C(=O)c1c(O)c3c(c(O)c1C2=O)C[C@@](O)(C(C)=O)C[C@@H]3O[C@H]1C[C@H](N)[C@H](O)[C@H](C)O1` [daunomycin], the Clinical antitumor effectiveness (malignant tumors) is given as “effective clinically against certain malignant tumors” and the Toxicities accompanying chemotherapy (malignant tumors) is given as “a variety of toxicities”.

For `CCCCCCN(CCCCCC)[C@H]1C[C@H](O[C@H]2C[C@](O)(C(=O)COC(=O)CCCC)Cc3c(O)c4c(c(O)c32)C(=O)c2c(OC)cccc2C4=O)O[C@@H](C)[C@H]1O` [di-n-hexyl], the IC50 (CCRF-CEM cell line; [3]) was 2500 nM and the MTD (in vivo) was 40 mg/kg.

In the case of `CCCCC(=O)OCC(=O)[C@]1(O)Cc2c(O)c3c(c(O)c2[C@@H](O[C@H]2C[C@H](N(Cc4ccccc4)Cc4ccccc4)[C@H](O)[C@H](C)O2)C1)C(=O)c1c(OC)cccc1C3=O` [dibenzyl], the IC50 (CCRF-CEM cell line; 48 h, read-out: ID50, corresponding compounds having different N-substitution) is reported as > 5000 nM and the MTD (in vivo) is reported as 20 mg/kg.

Work on `CCCCC(=O)OCC(=O)[C@]1(O)Cc2c(O)c3c(c(O)c2[C@@H](O[C@H]2C[C@H](N(CC)CC)[C@H](O)[C@H](C)O2)C1)C(=O)c1c(OC)cccc1C3=O` [diethyl] yielded an IC50 (CCRF-CEM cell line; [3]) of 300 nM and an MTD (in vivo) of 8 mg/kg.

With `CCCCC(=O)OCC(=O)[C@]1(O)Cc2c(O)c3c(c(O)c2[C@@H](O[C@H]2C[C@H](N(C)C)[C@H](O)[C@H](C)O2)C1)C(=O)c1c(OC)cccc1C3=O` [dimethyl] the IC50 (CCRF-CEM cell line; [3]) was 20 nM.

Compound `CCCCC(=O)OCC(=O)[C@]1(O)Cc2c(O)c3c(c(O)c2[C@@H](O[C@H]2C[C@H](NCCC)[C@H](O)[C@H](C)O2)C1)C(=O)c1c(OC)cccc1C3=O` [mono-n-propyl, N mono(n-propyl) adriamycin-14-valerate] has an IC50 (CCRF-CEM cell line; [3]) of 170 nM and an MTD (in vivo) of 15 mg/kg.
